Measurements reported in patent US20230241088A1, “COMPOSITION FOR PREVENTING OR TREATING LUNG CANCER COMPRISING ORTHO-TOPOLIN RIBOSIDE AS ACTIVE INGREDIENT” (CHUNG-ANG UNIVERSITY INDUSTRY-ACADEMY COOPERATION FOUNDATION, priority 2022, published 2023).
Where “and” joins values, the source holds several entries; their conditions need not be identical. Identical values can stand only once.

How the values were obtained:
[1] = system: H2087; test: MTT cell viability assay, H2087; type: cell-based, Human; conditions: 48 hours
Method: (§1) Human NSCLC cell lines A549, H1437, H2087, H522, and HCC827 were obtained from the Korean Cell Line Bank (KCLB, Seoul, Korea). These cells were cultured in RPMI-1640 medium (Gibco, N.Y., USA) supplemented with 10% FBS (Gibco) and 1% penicillin-streptomycin (HyClone Laboratories, Logan, Utah, USA). All cell lines were cultured under standard conditions (5% CO2, humid environment, 37° C.). A549 cells were seeded at a density of 1×10^4 cells/well and H1437, H2087, H522, HCC827, and MRCS cells at a density of 2×10^4 cells/well in 96-well plates and were cultured until cells reach approximately 70-80% confluency. The NSCLC cells were treated with plant hormones for 48 hours. Stock solution of each plant hormone was diluted with culture medium, wherein concentrations of DMSO, water, methanol, and ethanol in the culture medium were below 1% (v/v). The half-maximal inhibitory concentration (IC50) was calculated using CompuSyn software (ComboSyn Inc., Paramus, N.J., USA).
(§2) The inhibitory effect of plant hormones and their derivatives was investigated on 5 NSCLC cell lines (A549, H1437, H2087, H522, and HCC827). The NSCLC cells were treated with ABA, Cor, ethephon, GR-24, IAA, KR, MJ, N6b, N6i, oTR, and SS-HCS at concentrations of 0.1, 0.5, 1, 5, 10, 50, and 100 μM. Cell viability and IC50 values for 48 hours were investigated by performing the MTT assay.

[2] = doses of 100 mg/kg or 150 mg/kg, previous study; cited from earlier work
[3] = system: A549 cells; test: BrdU cell proliferation assay; type: cell-based, Human
Method: The siRNA sequences for ERK1/2 (5′-CCCUGACCCGUCUAAUA-3′ SEQ ID NO: 1), AKT (5′-GAAGGAAGU CAUCGUGCCCAA-3′ SEQ ID NO: 2), and scrambled siRNA (SN-1001-CFG) were purchased from Bioneer (Daejeon, Korea). Cells were transfected with siRNA using Lipofectamine 3000 (Invitrogen, Carlsbad, Calif., USA) according to the manufacturer's instructions.
The 5-bromo-2-deoxyuridine (BrdU) cell proliferation assay was performed according to a previously described method. A549 cells (1×10^4) were grown to approximately 70-80% confluency in 96-well plates and treated with oTR (5, 10, and 50 μM) for 48 hours in the presence or absence of U0126, wortmannin, siERK1/2, and siAKT. Cell proliferation was measured using the Cell Proliferation ELISA, BrdU (colorimetric) kit (Roche Diagnostics, Penzberg, Germany), according to the manufacturer's instructions.

[4] = system: A549 cells; test: Measurement of H2O2 content; type: cell-based, Human; conditions: oTR 5, 10, and 50 μM, 48 hours, dose-dependent
Method: A549 cells were seeded at a density of 2×10^5 cells/mL in a 6-well plate and treated with oTR (5, 10, and 50 μM) or an equal volume of DMSO (control) for 48 hours. H2O2 content was measured according to a previously described method with some modifications added. Briefly, the cell pellets were extracted with 1 mL of 0.1% TCAA, and the extracts were homogenized and centrifuged at 15,000×g at 4° C. for 10 minutes. Potassium phosphate buffer (10 mM; 0.5 mL) and 1 M KI (1 mL) were added to 0.5 mL of the supernatant. The mixture was then incubated for 15 minutes at room temperature in the dark and measured at 390 nm. For normalization, protein concentration was determined using Bio-Rad protein assay kit with BSA as a standard.

[5] = system: NSCLC cells; test: MTT cell viability assay, NSCLC cells overall; type: cell-based, Human
Method: as §1, §2

[6] = system: A549 cells; test: Annexin V-FITC/propidium iodide flow cytometric apoptosis analysis; type: cell-based, Human; conditions: 48 hours
Method: To detect apoptotic cells, flow cytometric analysis was performed using Annexin V-FITC/propidium iodide double staining of NSCLC cells. A549 cells (4×10^5) were grown to approximately 70-80% confluency in 60 mm dish and treated with oTR (5, 10, and 50 μM) for 48 hours. The cells were stained using the FITC Annexin V Apoptosis Detection Kit (556547, BD Biosciences, Franklin Lakes, N.J., USA) as previously described.

[7] = system: p-ERK, p-AKT, cleaved caspase-3, LC-III in A549 cells; test: Immunoblot analysis of cell lysates; type: cell-based, Human; conditions: NSCLC cells
Method: The immunoblot analysis was carried out according to a previously described method. A549 cells (4×10^5) were grown to approximately 70-80% confluency and treated with oTR (5, 10, and 50 μM) for 48 hours. The cell lysates and tissue lysates were prepared and subjected to SDS-PAGE for immunoblotting with the respective antibodies. Anti-caspase-3 (9662), anti-p-AKT (4058), and anti-AKT (9272) antibodies were purchased from Cell Signaling Technology (Danvers, Mass., USA). Anti-ERK1/ERK2 (MAB1576) and anti-p-ERK1/ERK2 (AF1018) were purchased from R&D Systems (Minneapolis, Minn., USA). Anti-LC-III (NB100-2331) antibody was purchased from Novus Biologicals (Littleton, Colo., USA). Anti-β-actin (sc-47778) and anti-GAPDH (sc-47724) antibody was purchased from Santa Cruz Biotechnology (Santa Cruz, Calif., USA).

[8] = system: A549; test: MTT cell viability assay, A549; type: cell-based, Human; conditions: 48 hours
Method: as §1, §2

For OC[C@H]1O[C@@H](n2cnc3c(NCc4ccccc4O)ncnc32)[C@H](O)[C@@H]1O [oTR, ortho topolin riboside], the IC50 [1] is listed as 51.4 µM and 26.1 µM, the acute toxicity [2] is listed as “no acute toxicity” and the “antiproliferative effect of oTR in presence of ERK inhibitors (U0126) or AKT inhibitors (wortmannin)” value ([3]; U0126 (20 μM) or wortmannin (5 μM), FIG. 6D) is listed as “significantly weakened”. The “cell proliferation (BrdU)” value ([3]; oTR 5, 10, and 50 μM, 48 hours, dose-dependent, FIG. 6A) was “significantly inhibited”, the “oTR-induced antiproliferative activity in ERK or AKT knockdown cells” value ([3]; siERK 1/2 (200 nM) or siAKT (200 nM), FIG. 6D) was “significantly inhibited” and the H2O2 content [4] was “significantly increased”. For the same compound, the “viability of NSCLC cells” value ([5]; 48 hours of oTR treatment, FIG. 1) was “reduced”, the “IC50 values compared among all tested plant hormones and derivatives” value ([5]; 48 hours, MTT assay) was “lowest IC50 values” and the “increase in percentage of late apoptotic cells compared to untreated NSCLC cells” value ([6]; 10 μM oTR) was 5.70±0.16%. The “increase in percentage of late apoptotic cells compared to untreated NSCLC cells” value ([6]; 50 μM oTR) was 24.56±9.37%, the “cleaved caspase-3” value ([7]; 50 μM oTR) was “significantly increased” and the “level of LC-III, an autophagy marker” value ([7]; FIG. 6C) was “did not change”. For the same compound, the “phosphorylated AKT (p-AKT)” value ([7]; oTR 48 hours) was “significantly decreased”, the “phosphorylated ERK1/2 (p-ERK)” value ([7]; oTR 48 hours) was “significantly decreased” and the IC50 [8] was 34.3 ± 4.4 µM.
